According to paper PMC5268410, “Mode of Action of the Natural Insecticide, Decaleside Involves Sodium Pump Inhibition” (PLoS ONE, 2017):
pIC50: −log10 of the molar value.

Assays:
[1] = target: T1, purified Na^+, K^+ -ATPase (porcine cerebral cortex); test: phosphate release from ATP; type: biochemical, Sus scrofa; details: 1.5 mM ATP; Na+ 0.14 M, K+ 14 mM, Mg2+ 3 mM; 37°C
T1 construct: gene ATP1A1; commercial native enzyme purified from porcine cerebral cortex (Sigma); with Sodium/potassium-transporting ATPase subunit beta-1; Sodium/potassium-transporting ATPase subunit beta-2

[2] = target: T1, purified Na^+, K^+ -ATPase (porcine cerebral cortex); test: phosphate release from ATP, ouabain-inhibitable activity; type: biochemical, Sus scrofa; details: 1.5 mM ATP; Na+ 0.14 M, K+ 14 mM, Mg2+ 3 mM; 37°C; 30 min preincubation; competitive with ATP

| Molecule | pIC50 [1] | pIC50 [2] |
| --- | --- | --- |
| C[C@@H]1O[C@@H](O[C@H]2C[C@@H](O)[C@]3(CO)[C@H]4[C@H](O)C[C@]5(C)[C@@H](C6=CC(=O)OC6)CC[C@]5(O)[C@@H]4CC[C@]3(O)C2)[C@H](O)[C@H](O)[C@H]1O [Ouabain] | 3.60 | – |
| decaleside I | – | 3.98 |
| decaleside II | – | 4.02 |
